Source: patent US6020363A, “Isocoumarin derivatives and use thereof in drugs” (Mercian Corporation, priority 1998, dated 2000)

Legend:
[1] = tested on: neogenesis of tumor vessels induced by the transplanted mouse tumor S180; experiment: Inhibitory Effect on Vascularization Using the Mouse Back Subcutaneous Transplantation Method; format: in vivo, male ICR mouse; settings: for Vascularization score: 5 days, mean ± SE, control 2.93 ± 0.07
Method: The inhibitory effect of Compounds 1 and 3 in accordance with the present invention on the neogenesis of tumor vessels induced by the transplanted mouse tumor S180 was tested using the mouse back subcutaneous transplantation method. Specifically, 1×10^7 S180 cells were injected into a chamber formed by attaching a Millipore filter having a pore size of 0.45 μm to either side of a Millipore ring. After the injection hole was stopped up, this chamber was transplanted into an air sac formed beneath the skin of the back of a male ICR mouse (9-10 weeks old). Starting from the day of transplantation, a test compound or a solvent control comprising a 0.5% carboxymethylcellulose solution was orally administered for 5 days. After the skin was separated on the fifth day of transplantation, an O-ring of 10 mm internal diameter having the same shape as the Millipore ring was placed on the part of the skin which had been in contact with the chamber, observed under a stereoscopic microscope, and photographed.
In the photographs so taken, the degree of vascularization was rated 0, 1, 2 or 3 according to the number of 3 mm or longer tortuous blood vessels characteristic of tumoral vessels, and scored on the following basis.
0: No tumoral vessel was observed.
1: One tumoral vessel was observed.
2: Two tumoral vessels were observed.
3: Three or more tumoral vessels were observed.

[2] = tested on: 5-lipoxygenase; experiment: Effect on 5-lipoxygenase activity; format: biochemical, rats
Method: Moreover, its inhibitory effect on 5-lipoxygenase was tested according to the method of Egan et al. (Journal of Biological Chemistry, 260: 11554-11559, 1985). Specifically, an enzyme preparation derived from the basophilic leukemia cells (RBL-1) of rats was used. This enzyme preparation, together with 30 μM Compound 3, was incubated at room temperature for 5 minutes, followed by the addition of linolenic acid. Thereafter, this mixture was incubated at room temperature for 8 minutes. After the reaction was stopped by the addition of a sodium hydroxide solution, its absorbance was measured at 234 nm.

[3] = Acute toxicity in mice; format: in vivo, DBA/1J mice; settings: 100 mg/kg
Method: (§1) Among the compounds in accordance with the present invention, each of Compounds 1, 2 and 3 was orally or intraperitoneally administered to eight DBA/1J mice in a dose of 100 mg/kg body weight. […] This seems to indicate that the compounds used in the present invention have no or very little, if any, acute toxicity. Moreover, Compound 1, in a dose of 100 mg/kg body weight, or Compound 3, in a dose of 30 mg/kg body weight, was orally administered to eight mice of the aforesaid strain for 40 days. […] Thus, the compounds of the present invention have little subacute toxicity. Since other compounds in accordance with the present invention are estimated to have similar properties, the compounds of the present invention can be used very safely.

[4] = set-up: species or system DBA/1J mice; settings: mouse, in vivo, po, 30 mg/kg
Method: as §1

SMILES: COc1cc(O)c2c(=O)oc(C(C)C(=O)O)cc2c1 (centres unmarked) [Compound 3, 2-(8-hydroxy-6-methoxy-1-oxo-1H-2-benzopyran-3-yl)propionic Acid]
- Vascularization score ([1]; oral 0.3 mg/kg, n = 10): 2.40 ± 0.4
- Vascularization score ([1]; oral 1.0 mg/kg, n = 11): 1.55 ± 0.43
- Vascularization score ([1]; oral 3 mg/kg, n = 14): 0.86 ± 0.33
- Vascularization score ([1]; oral 10 mg/kg, n = 14): 0.86 ± 0.38
- inhibition of vascularization induced by tumor cell S180 (in words) ([1]; oral, 1-10 mg/kg body weight): significantly inhibited vascularization
- Degree of inhibition (%), 5-Lipoxygenase ([2]; 30 μM Compound 3, n = 2): 21.0%
- inhibitory effect on lipoxygenase (in words) ([2]; 30 μM or 300 μM): no inhibitory effect on cyclooxygenase or lipoxygenase
- evidence of toxicity, single administration ([3]; mouse, in vivo): no animal showed evidences of toxicity
- mortality, single administration ([3]; oral or intraperitoneal, eight DBA/1J mice): No animal died
- evidence of toxicity, 40 days [4]: no animal showed evidences of toxicity
- mortality, 40 days [4]: No animal died
